One experiment deals with Cannabinoid receptor 1 (Homo sapiens, UniProt P21554). It counts as functional.
Experiment [1] concerns the target Gamma-aminobutyric acid type B receptor subunit 1 (Homo sapiens, UniProt Q9UBS5).
The next experiment deals with Histamine H2 receptor (Homo sapiens, UniProt P25021).
Experiment [2] has as its target 5-hydroxytryptamine receptor 6 (Homo sapiens, UniProt P50406).
Experiment [3] deals with 5-hydroxytryptamine receptor 7 (Homo sapiens, UniProt P34969).
The target in experiment [4] is T1, Alpha-2A adrenergic receptor (Homo sapiens, UniProt P08913).
T1 sequence (P08913 whole entry): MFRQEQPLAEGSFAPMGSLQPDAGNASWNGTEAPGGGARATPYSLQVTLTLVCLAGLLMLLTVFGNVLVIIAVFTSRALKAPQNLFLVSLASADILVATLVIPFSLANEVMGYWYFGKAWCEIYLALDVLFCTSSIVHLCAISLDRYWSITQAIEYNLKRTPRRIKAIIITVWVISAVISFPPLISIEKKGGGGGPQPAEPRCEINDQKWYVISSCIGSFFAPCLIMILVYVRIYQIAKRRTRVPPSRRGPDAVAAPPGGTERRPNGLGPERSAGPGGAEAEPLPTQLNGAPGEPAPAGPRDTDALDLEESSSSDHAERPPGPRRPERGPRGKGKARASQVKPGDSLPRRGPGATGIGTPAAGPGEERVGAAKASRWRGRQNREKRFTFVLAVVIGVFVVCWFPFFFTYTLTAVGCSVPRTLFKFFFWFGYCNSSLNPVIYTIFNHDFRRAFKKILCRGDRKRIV

Experiment [5] addresses T2, Alpha-1A adrenergic receptor (Homo sapiens, UniProt P35348).
T2 sequence (P35348 whole entry): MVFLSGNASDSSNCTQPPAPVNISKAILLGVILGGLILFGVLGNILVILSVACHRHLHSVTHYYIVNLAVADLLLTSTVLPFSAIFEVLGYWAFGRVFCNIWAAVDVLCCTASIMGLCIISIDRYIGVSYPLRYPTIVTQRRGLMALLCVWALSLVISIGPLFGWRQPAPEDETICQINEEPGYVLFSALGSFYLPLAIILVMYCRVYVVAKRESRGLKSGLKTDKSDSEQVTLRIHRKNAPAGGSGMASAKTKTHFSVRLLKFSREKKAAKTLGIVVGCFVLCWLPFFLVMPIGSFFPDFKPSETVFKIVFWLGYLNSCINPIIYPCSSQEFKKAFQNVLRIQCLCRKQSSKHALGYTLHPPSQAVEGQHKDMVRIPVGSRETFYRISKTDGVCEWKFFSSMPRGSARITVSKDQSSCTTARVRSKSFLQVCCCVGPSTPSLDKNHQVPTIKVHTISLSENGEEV

In experiment [6] the target is 5-hydroxytryptamine receptor 2A (Homo sapiens, UniProt P28223).
Experiment [7] deals with T3, Muscarinic acetylcholine receptor M2 (Homo sapiens, UniProt P08172).
T3 sequence (P08172 whole entry): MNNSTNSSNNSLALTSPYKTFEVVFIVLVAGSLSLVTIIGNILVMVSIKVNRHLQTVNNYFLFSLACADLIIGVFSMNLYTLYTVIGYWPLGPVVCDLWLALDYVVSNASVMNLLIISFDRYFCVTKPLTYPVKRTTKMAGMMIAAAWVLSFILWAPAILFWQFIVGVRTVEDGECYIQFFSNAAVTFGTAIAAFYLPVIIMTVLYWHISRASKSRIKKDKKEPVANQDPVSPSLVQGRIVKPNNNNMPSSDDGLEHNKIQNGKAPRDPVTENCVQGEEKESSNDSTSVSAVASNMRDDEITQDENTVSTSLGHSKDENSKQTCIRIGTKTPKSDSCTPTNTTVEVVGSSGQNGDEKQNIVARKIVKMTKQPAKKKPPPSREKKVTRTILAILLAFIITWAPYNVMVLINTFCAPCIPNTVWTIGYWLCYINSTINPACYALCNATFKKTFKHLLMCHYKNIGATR

Experiment [8] deals with T4, Histamine H1 receptor (Homo sapiens, UniProt P35367). The format is functional, cell-based.
Experiment [9] concerns the target T4, Histamine H1 receptor. The format is functional, cell-based. This is another data set of the same source.
Experiment [10] has as its target Voltage-dependent L-type calcium channel subunit alpha-1C (Homo sapiens, UniProt Q13936). It counts as functional, cell-based.
Experiment [11] has as its target Hydroxycarboxylic acid receptor 2 (Homo sapiens, UniProt Q8TDS4).
Experiment [12] concerns the target T1, Alpha-2A adrenergic receptor. This is another data set of the same source.
The target of another experiment is D(1A) dopamine receptor (Homo sapiens, UniProt P21728).
Experiment [13] has as its target T5, 5-hydroxytryptamine receptor 1A (Homo sapiens, UniProt P08908).
T5 sequence (P08908 whole entry): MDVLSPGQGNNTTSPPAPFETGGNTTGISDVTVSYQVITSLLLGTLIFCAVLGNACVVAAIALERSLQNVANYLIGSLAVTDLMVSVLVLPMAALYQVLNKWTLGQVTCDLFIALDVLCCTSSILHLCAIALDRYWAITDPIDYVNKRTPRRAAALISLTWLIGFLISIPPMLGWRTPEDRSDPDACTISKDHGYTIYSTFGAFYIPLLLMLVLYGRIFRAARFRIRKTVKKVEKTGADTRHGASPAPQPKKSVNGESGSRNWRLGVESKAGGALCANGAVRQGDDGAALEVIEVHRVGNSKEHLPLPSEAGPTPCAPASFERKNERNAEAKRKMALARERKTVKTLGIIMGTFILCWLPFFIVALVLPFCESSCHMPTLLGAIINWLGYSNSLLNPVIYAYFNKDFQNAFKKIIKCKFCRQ

Experiment [14] concerns the target Beta-1 adrenergic receptor (Homo sapiens, UniProt P08588). It counts as functional, cell-based.
Note: assay procedure not described here.

Hydroxycarboxylic acid receptor 2, sequence (Q8TDS4 whole entry): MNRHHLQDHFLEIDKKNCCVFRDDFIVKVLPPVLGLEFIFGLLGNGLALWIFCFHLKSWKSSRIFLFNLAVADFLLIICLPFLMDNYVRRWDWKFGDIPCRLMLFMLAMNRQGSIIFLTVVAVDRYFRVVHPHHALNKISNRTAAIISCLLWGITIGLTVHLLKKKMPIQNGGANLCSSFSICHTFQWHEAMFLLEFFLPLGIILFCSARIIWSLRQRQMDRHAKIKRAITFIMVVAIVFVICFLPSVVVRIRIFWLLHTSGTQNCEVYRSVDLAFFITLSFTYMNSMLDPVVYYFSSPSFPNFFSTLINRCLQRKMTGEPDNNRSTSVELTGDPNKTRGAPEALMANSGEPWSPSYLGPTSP
Gamma-aminobutyric acid type B receptor subunit 1, sequence (Q9UBS5 whole entry): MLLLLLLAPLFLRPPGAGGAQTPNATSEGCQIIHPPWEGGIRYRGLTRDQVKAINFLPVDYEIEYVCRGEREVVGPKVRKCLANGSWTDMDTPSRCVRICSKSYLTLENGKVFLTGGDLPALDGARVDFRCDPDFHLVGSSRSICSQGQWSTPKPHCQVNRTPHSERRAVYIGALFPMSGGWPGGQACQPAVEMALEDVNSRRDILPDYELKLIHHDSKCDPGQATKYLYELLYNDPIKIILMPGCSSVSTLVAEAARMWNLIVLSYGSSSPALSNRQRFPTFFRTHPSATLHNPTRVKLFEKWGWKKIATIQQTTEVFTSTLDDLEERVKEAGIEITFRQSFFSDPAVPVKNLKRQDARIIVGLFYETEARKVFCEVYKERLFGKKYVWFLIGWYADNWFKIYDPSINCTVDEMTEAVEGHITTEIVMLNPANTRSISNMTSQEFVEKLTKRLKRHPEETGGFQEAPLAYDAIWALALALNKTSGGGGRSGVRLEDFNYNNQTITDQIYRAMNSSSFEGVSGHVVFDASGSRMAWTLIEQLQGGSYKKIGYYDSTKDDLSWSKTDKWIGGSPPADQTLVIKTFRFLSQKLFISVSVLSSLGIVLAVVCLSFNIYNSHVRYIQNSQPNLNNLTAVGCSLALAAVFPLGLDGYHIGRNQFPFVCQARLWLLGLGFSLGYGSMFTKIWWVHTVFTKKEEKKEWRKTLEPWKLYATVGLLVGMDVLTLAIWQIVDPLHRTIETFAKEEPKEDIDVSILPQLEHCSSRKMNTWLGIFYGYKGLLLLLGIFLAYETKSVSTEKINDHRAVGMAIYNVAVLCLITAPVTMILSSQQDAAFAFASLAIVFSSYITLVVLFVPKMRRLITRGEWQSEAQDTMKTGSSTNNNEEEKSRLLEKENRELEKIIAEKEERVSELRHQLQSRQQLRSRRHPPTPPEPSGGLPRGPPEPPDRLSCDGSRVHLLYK
Histamine H2 receptor, sequence (P25021 whole entry): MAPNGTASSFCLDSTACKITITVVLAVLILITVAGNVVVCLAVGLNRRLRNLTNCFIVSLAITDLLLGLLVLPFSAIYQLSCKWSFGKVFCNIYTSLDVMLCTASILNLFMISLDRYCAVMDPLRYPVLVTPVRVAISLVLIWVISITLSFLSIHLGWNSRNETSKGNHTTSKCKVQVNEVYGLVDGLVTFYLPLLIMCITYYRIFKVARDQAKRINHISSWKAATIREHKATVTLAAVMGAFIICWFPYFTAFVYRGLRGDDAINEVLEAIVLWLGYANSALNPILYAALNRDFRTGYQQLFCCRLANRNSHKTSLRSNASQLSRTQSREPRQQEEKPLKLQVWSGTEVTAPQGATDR
D(1A) dopamine receptor, sequence (P21728 whole entry): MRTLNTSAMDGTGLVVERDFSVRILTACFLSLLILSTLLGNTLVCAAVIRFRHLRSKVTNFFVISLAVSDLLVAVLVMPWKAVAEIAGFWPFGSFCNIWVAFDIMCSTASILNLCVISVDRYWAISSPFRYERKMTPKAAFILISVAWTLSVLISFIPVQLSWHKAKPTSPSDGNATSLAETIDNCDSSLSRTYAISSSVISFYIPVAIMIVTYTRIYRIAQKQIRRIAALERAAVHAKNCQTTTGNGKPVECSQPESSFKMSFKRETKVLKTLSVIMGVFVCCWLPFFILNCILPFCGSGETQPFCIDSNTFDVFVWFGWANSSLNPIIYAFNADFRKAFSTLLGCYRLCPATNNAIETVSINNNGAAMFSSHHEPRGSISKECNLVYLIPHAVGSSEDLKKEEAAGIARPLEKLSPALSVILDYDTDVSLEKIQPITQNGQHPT
5-hydroxytryptamine receptor 2A, sequence (P28223 whole entry): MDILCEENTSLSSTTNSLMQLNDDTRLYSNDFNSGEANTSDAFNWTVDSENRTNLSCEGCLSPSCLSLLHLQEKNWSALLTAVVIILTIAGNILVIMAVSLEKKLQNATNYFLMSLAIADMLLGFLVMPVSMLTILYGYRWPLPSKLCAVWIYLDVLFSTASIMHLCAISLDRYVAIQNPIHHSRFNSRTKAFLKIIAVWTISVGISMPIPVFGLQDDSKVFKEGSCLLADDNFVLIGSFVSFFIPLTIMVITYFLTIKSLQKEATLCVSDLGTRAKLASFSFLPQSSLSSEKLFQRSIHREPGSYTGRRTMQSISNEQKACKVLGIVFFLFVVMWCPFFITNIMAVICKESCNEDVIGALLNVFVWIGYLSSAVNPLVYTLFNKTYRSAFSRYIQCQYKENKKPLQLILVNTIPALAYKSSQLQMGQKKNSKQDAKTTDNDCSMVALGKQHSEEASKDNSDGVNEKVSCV
Voltage-dependent L-type calcium channel subunit alpha-1C, sequence (Q13936 whole entry): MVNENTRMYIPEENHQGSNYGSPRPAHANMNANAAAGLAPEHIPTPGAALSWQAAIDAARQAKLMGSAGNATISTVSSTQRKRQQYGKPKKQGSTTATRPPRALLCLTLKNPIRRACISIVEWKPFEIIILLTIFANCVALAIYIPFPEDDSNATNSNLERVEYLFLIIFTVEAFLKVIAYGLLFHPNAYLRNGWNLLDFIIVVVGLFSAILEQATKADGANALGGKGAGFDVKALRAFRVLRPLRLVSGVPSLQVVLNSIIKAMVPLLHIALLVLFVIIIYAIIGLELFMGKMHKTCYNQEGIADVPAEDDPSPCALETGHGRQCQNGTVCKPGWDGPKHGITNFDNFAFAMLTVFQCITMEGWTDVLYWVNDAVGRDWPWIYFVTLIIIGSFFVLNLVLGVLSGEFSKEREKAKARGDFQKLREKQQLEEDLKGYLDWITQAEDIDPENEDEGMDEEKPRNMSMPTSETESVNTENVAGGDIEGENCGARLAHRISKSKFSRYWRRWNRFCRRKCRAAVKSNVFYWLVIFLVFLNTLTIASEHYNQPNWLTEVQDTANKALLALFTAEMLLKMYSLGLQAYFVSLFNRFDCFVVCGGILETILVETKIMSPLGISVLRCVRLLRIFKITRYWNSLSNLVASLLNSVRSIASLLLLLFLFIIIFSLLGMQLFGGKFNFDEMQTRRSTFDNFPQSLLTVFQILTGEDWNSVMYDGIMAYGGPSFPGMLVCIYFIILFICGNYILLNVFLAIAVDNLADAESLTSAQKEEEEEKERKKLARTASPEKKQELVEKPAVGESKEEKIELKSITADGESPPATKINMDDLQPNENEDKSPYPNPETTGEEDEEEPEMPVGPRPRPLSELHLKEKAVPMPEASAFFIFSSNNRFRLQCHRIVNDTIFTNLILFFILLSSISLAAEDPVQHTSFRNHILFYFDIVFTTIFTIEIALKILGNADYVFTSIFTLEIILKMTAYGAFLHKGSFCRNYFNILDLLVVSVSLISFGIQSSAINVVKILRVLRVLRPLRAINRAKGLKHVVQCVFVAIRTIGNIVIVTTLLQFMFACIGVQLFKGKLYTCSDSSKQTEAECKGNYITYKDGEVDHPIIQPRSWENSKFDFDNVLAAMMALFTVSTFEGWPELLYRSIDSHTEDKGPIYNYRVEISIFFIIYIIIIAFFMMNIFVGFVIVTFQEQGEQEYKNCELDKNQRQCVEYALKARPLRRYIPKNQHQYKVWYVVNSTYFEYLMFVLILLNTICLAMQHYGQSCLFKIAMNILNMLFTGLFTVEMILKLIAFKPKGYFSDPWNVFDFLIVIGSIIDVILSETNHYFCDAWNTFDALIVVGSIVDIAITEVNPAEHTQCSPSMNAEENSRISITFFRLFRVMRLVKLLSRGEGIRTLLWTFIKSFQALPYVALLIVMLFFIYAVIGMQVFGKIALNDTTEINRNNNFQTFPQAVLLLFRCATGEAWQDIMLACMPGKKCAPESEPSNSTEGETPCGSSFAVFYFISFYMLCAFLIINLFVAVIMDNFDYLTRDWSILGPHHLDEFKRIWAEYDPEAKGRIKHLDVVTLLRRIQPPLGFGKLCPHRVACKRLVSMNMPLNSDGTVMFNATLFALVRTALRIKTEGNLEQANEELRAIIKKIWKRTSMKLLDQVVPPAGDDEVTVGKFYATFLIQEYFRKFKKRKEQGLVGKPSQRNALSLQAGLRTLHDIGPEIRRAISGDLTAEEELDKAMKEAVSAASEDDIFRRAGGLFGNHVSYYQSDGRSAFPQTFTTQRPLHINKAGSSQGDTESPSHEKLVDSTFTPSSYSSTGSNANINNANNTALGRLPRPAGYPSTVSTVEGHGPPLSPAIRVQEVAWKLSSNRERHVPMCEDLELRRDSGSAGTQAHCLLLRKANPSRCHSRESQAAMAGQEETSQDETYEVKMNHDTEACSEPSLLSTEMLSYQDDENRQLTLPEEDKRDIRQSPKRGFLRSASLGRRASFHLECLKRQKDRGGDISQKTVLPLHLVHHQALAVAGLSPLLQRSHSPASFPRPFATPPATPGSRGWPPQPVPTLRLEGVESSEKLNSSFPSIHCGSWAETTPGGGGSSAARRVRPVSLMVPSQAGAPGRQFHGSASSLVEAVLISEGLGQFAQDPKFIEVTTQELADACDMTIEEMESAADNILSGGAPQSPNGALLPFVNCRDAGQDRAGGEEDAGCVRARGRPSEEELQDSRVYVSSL

One may read the AC50 as the concentration giving half of the maximal activity seen. In the case of `CCOC(=O)[C@H](CCc1ccccc1)N[C@@H](C)C(=O)N1Cc2ccccc2C[C@H]1C(=O)O`, the AC50 (at Cannabinoid receptor 1; in [1]; on Histamine H2 receptor; in experiment [2]; in experiment [3]; in experiment [4]) was over 10 µM in each case. Besides, the AC50 in experiment [5] is over 10 µM.

`C=CC1=C(C(=O)O)N2C(=O)[C@@H](NC(=O)/C(=N\O)c3csc(N)n3)[C@H]2SC1` returned a half-maximal activity concentration (AC50) in experiment [6] of over 10 µM.

Take `CC#CC(=O)N1CCC[C@H]1c1nc(-c2ccc(C(=O)Nc3ccccn3)cc2)c2c(N)nccn12` [ACALABRUTINIB]: the AC50 in [7] was over 30 µM.

Take `CN(C)CCc1c[nH]c2ccc(CS(=O)(=O)N3CCCC3)cc12` [ALMOTRIPTAN]: the AC50 at Histamine H1 receptor [8] and at Histamine H1 receptor [9] was over 30 µM in each case.

As for `CN(C)CCC=C1c2ccccc2CCc2ccccc21` [AMITRIPTYLINE], the AC50 in experiment [10] was 32 µM; in experiment [11] it was over 10 µM; in experiment [4], 2.92 µM.

For `CN1CC2c3ccccc3Oc3ccc(Cl)cc3C2C1` (configuration not stated) [ASENAPINE], the concentration at half-maximal activity (AC50) was found to be 0.0137 µM in experiment [12] and 0.01 µM at D(1A) dopamine receptor.

On to `CC(=O)Oc1ccccc1C(=O)O` [ASPIRIN], for which the half-maximal activity concentration (AC50) (on Cannabinoid receptor 1; in [1]; at Histamine H2 receptor; in experiment [2]; in experiment [3]; in experiment [4]) was over 10 µM throughout. Also, the concentration at half-maximal activity (AC50) in [5] was over 10 µM; in experiment [13], over 30 µM; in [7] it was over 30 µM; in [12], over 30 µM; at D(1A) dopamine receptor, over 30 µM.

With `Cn1cnc2c(F)c(Nc3ccc(Br)cc3F)c(C(=O)NOCCO)cc21` [BINIMETINIB], in experiment [10], the AC50 is over 50 µM.

As to `C[C@H](CS)C(=O)N1CCC[C@H]1C(=O)O` [CAPTOPRIL], the AC50 in [4] was over 10 µM.

For `CCN(CC)CCn1c(=O)c(Cc2ccc(OC)cc2)nc2ccccc21` [CAROVERINE], the AC50 in [14] is over 30 µM.

For the compound `CN(C)CCCC1(c2ccc(F)cc2)OCc2cc(C#N)ccc21` (configuration not stated) [CITALOPRAM], the half-maximal activity concentration (AC50) in experiment [11] and in [4] was over 10 µM in each case.

`CC(C)/N=c1\cc2n(-c3ccc(Cl)cc3)c3ccccc3nc-2cc1Nc1ccc(Cl)cc1` [CLOFAZIMINE] returned a half-maximal activity concentration (AC50) in experiment [14] of over 30 µM.

Regarding `C[C@]12CCC(=O)C=C1CC[C@H]1[C@@H]3CC[C@](O)(C(=O)CO)[C@@]3(C)C[C@H](O)[C@@]12F` [FLUDROCORTISONE], the concentration at half-maximal activity (AC50) (at Histamine H2 receptor; in [4]; in [6]) was over 10 µM in each case.

As to `CCOC(=O)Nc1ccc(NCc2ccc(F)cc2)nc1N` [FLUPIRTINE], in [14], the half-maximal activity concentration (AC50) was over 30 µM.

As to `NCC1(CC(=O)O)CCCCC1` [GABAPENTIN], the concentration at half-maximal activity (AC50) (at Cannabinoid receptor 1; in experiment [1]; on Histamine H2 receptor; in experiment [2]; in [3]; in [4]) was over 10 µM each time. Besides, the AC50 in [5] was over 10 µM; in experiment [13] it was over 30 µM; in [7], over 30 µM; in experiment [12] it was over 30 µM; at D(1A) dopamine receptor it was over 30 µM.

Regarding `OCCOCCN1CCN(C(c2ccccc2)c2ccc(Cl)cc2)CC1` (configuration not stated) [HYDROXYZINE], the concentration at half-maximal activity (AC50) is over 10 µM in experiment [11]; over 30 µM at Histamine H1 receptor [8]; 0.45 µM at Histamine H1 receptor [9]; 0.188 µM at Histamine H2 receptor; 2.2 µM in experiment [2]; 6.8 µM in experiment [3]. Besides, the values for the AC50 in experiment [4], in [5] and in experiment [6] were 12.8 µM, 0.546 µM and 0.146 µM, respectively.

For `N#Cc1ccnc(N2C(=O)CC[C@H]2C(=O)N(c2cncc(F)c2)[C@H](C(=O)NC2CC(F)(F)C2)c2ccccc2Cl)c1` [IVOSIDENIB], the concentration at half-maximal activity (AC50) in experiment [10] is over 50 µM.

For `Nc1nnc(-c2cccc(Cl)c2Cl)c(N)n1` [LAMOTRIGINE], the half-maximal activity concentration (AC50) is over 50 µM in experiment [10]; over 10 µM in experiment [11]; over 10 µM on Histamine H2 receptor; over 10 µM in [4]; 11.1 µM in experiment [5].

Take `CC(=O)NC[C@H]1CN(c2ccc(N3CCOCC3)c(F)c2)C(=O)O1` [LINEZOLID]: the AC50 in experiment [10] was over 50 µM.

As for `C#CCN(C)Cc1ccccc1` [PARGYLINE], the AC50 on Histamine H1 receptor [8] and at Histamine H1 receptor [9] was over 30 µM throughout.

Turning to `CC(=O)SCC(Cc1ccccc1)C(=O)NCC(=O)OCc1ccccc1` (configuration not stated) [RACECADOTRIL], the AC50 (on Histamine H2 receptor; in [4]; in [6]) was over 10 µM each time.

For `CCOc1ccccc1OCCN[C@H](C)Cc1ccc(OC)c(S(N)(=O)=O)c1` [TAMSULOSIN], the AC50 in experiment [12] amounted to 0.79 µM; in experiment [6], 14.4 µM.

In experiment [1], `Cc1c(C)c2c(c(C)c1O)CCC(C)(COc1ccc(CC3SC(=O)NC3=O)cc1)O2` (configuration not stated) [TROGLITAZONE] had an AC50 of over 10 µM.

(Values after ChEMBL document CHEMBL5291721, “A preclinical secondary pharmacology resource illuminates target-adverse drug reaction associations of marketed drugs” (Nat Commun, 2023).)
